SMILES strings stand for the structures. Values joined by “and” are separate entries in the source; they are usually repeats but may differ in a detail not shown here. Equal entries are not always repeated. Toxic doses and inconclusive results are not listed.

In this assay the test system is BDF1 mice, B16 melanoma ip, median survival T/C. As to the kind of experiment: NCI In Vivo Anticancer Drug Screen. Data for tumor model B16 Melanoma (intraperitoneal) in B6D2F1 (BDF1) mice. Particulars: endpoint: median survival time, higher = longer survival. The method in brief:
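Survival or tumor size is measured after treatment of tumor-bearing mice and normalised to the vehicle-treated control group.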

Setting [1] is: dose: 25.0 mg/kg/injection, schedule: Q01DX009 (ip), vehicle: saline with Tween-80.
The mark [2] stands for this setting: dose: 50.0 mg/kg/injection, schedule: Q01DX009 (ip), vehicle: saline with Tween-80.
The mark [3] stands for this setting: dose: 100.0 mg/kg/injection, schedule: Q01DX009 (ip), vehicle: Klucel (hydroxypropylcellulose) (HPC).
[4] abbreviates: dose: 200.0 mg/kg/injection, schedule: Q01DX009 (ip), vehicle: Klucel (hydroxypropylcellulose) (HPC).
Setting [5] is: dose: 400.0 mg/kg/injection, schedule: Q01DX009 (ip), vehicle: Klucel (hydroxypropylcellulose) (HPC).
[6] abbreviates: dose: 100.0 mg/kg/injection, schedule: Q04DX003 (ip), vehicle: Klucel (hydroxypropylcellulose) (HPC).
Where [7] appears, read: dose: 200.0 mg/kg/injection, schedule: Q04DX003 (ip), vehicle: Klucel (hydroxypropylcellulose) (HPC).
The mark [8] stands for this setting: dose: 25.0 mg/kg/injection, schedule: Q01DX009 (ip), vehicle: Klucel (hydroxypropylcellulose) (HPC).
[9] abbreviates: dose: 50.0 mg/kg/injection, schedule: Q01DX009 (ip), vehicle: Klucel (hydroxypropylcellulose) (HPC).
Setting [10] is: dose: 6.25 mg/kg/injection, schedule: Q01DX009 (ip), vehicle: Klucel (hydroxypropylcellulose) (HPC).
[11] abbreviates: dose: 12.5 mg/kg/injection, schedule: Q01DX009 (ip), vehicle: Klucel (hydroxypropylcellulose) (HPC).
Where [12] appears, read: dose: 100.0 mg/kg/injection, schedule: Q01DX009 (ip), vehicle: saline with Tween-80.
Setting [13] is: dose: 200.0 mg/kg/injection, schedule: Q01DX009 (ip), vehicle: saline with Tween-80.
Where [14] appears, read: dose: 12.5 mg/kg/injection, schedule: Q01DX009 (ip), vehicle: saline with Tween-80.
Setting [15] is: dose: 6.25 mg/kg/injection, schedule: Q01DX009 (ip), vehicle: saline with Tween-80.

As to `Cc1c(N)nc([C@H](CC(N)=O)NC[C@H](N)C(N)=O)nc1C(=O)N[C@H](C(=O)N[C@H](C)[C@@H](O)CC(=O)N[C@H](C(=O)NC(O[C@@H]1O[C@@H](C)[C@@H](N)[C@@H](O)[C@H]1O)C(O)c1nc(-c2nc(C(=O)NCCCCN)cs2)cs1)[C@@H](C)O)[C@@H](O[C@@H]1O[C@@H](CO)[C@@H](O)[C@H](O)[C@@H]1O[C@H]1O[C@H](CO)[C@@H](O)[C@H](OC(N)=O)[C@@H]1O)c1c[nH]cn1` (some centres undefined), the T/C is 152 % of control (dose: 0.8 mg/kg/injection, schedule: Q01DX009 (ip), vehicle: saline); 152 % of control (dose: 1.6 mg/kg/injection, schedule: Q01DX009 (ip), vehicle: saline); 150 % of control (dose: 3.2 mg/kg/injection, schedule: Q01DX009 (ip), vehicle: saline).
As for `Cn1c2c(c3ccccc3c1=O)C(=O)c1ccccc1-2`, the T/C under setting [1] is 97 % of control and the T/C under setting [2] is 89 % of control.
Take `CCOc1ccc(NC(=O)C=O)cc1`: the T/C under setting [3] is 100 % of control, the T/C under setting [4] was 90 % of control and the T/C under setting [5] was 90 % of control.
As to `Cc1ccc(Cl)cc1NC(=O)c1ccc(Cl)cc1Cl`, the T/C is, setting by setting: under setting [6], 95 % of control; under setting [7], 102 % of control.
Take `FC(F)(F)c1cc(CN(CCCl)CCCl)cc(C(F)(F)F)c1`: the T/C is 97 % of control (dose: 12.5 mg/kg/injection, schedule: Q01DX009 (ip), vehicle: saline) and 92 % of control (dose: 25.0 mg/kg/injection, schedule: Q01DX009 (ip), vehicle: saline).
In the case of `CCC(C)C(C#N)(CCN(CC)CC)c1ccccc1` (centres undefined), the T/C is 121 % of control under setting [8], 118 % of control under setting [9] and 109 % of control under setting [3].
Consider `Clc1sc2ccccc2c1Cl`, for which the T/C under setting [10] was 93 % of control, the T/C under setting [11] was 92 % of control, the T/C under setting [8] was 91 % of control and the T/C under setting [9] is 90 % of control.
On to `COc1cc2c(cc1OC)C(C#N)C2` (centres undefined), for which the T/C under setting [10] is 105 % of control; the T/C under setting [11] was 97 % of control and 102 % of control; the T/C under setting [8] is 111 % of control.
On to `O=C(SCC(NSc1ccccc1[N+](=O)[O-])C(=O)O)c1ccccc1` (centres undefined), for which the T/C is 113 % of control (dose: 50.0 mg/kg/injection, schedule: Q04DX003 (ip), vehicle: Klucel (hydroxypropylcellulose) (HPC)); 100 % of control under setting [6]; 94 % of control under setting [7].
In the case of `CC[n+]1ccc(Nc2ccc(NC(=O)c3ccc(C(=O)Nc4ccc(Nc5cc[n+](CC)c(N)n5)cc4)cc3)cc2)nc1N`, the T/C is, setting by setting: (dose: 25.0 mg/kg/injection, schedule: Q01DX009 (ip), vehicle: suspension in saline) 162 % of control; (dose: 50.0 mg/kg/injection, schedule: Q01DX009 (ip), vehicle: suspension in saline) 163 % of control.
Take `Cc1ccc2cc3c(ccc4ccccc43)c3c2c1CC3`: the T/C is, setting by setting: (dose: 50.0 mg/kg/injection, schedule: Q01DX009 (ip), vehicle: saline) 124 % of control; under setting [12], 120 % of control; (dose: 100.0 mg/kg/injection, schedule: Q04DX003 (ip), vehicle: saline with Tween-80) 110 % of control; under setting [13], 114 % of control; (dose: 200.0 mg/kg/injection, schedule: Q04DX003 (ip), vehicle: saline with Tween-80) 110 % of control; (dose: 400.0 mg/kg/injection, schedule: Q04DX003 (ip), vehicle: saline with Tween-80) 115 % of control.
For `Nc1ccc(-c2ccc3ccccc3n2)cc1`, the T/C reads like this: under setting [10], 111 % of control; under setting [11], 104 % of control; under setting [8], 91 % of control.
For the compound `CN(C)N=Nc1cn[nH]c1C(N)=O`, the T/C reads like this: under setting [11], 110 % of control; under setting [8], 111 % of control; under setting [9], 100 % of control; under setting [3], 98 % of control; under setting [4], 96 % of control.
In the case of `CC(NC(=O)C(C)NC(=O)OC(C)(C)C)C(=O)O` (centres undefined), the T/C runs as follows: under setting [1], 92 % of control; under setting [2], 94 % of control; under setting [12], 93 % of control; under setting [13], 92 % of control.
`COc1ccc(NC(=O)Nc2cc(C(F)(F)F)ccc2Cl)cc1`: the T/C was 100 % of control (dose: 8.0 mg/kg/injection, schedule: Q01DX009 (ip), vehicle: saline with Tween-80); 100 % of control (dose: 12.0 mg/kg/injection, schedule: Q01DX009 (ip), vehicle: saline with Tween-80); 215 % of control under setting [14]; 104 % of control (dose: 18.0 mg/kg/injection, schedule: Q01DX009 (ip), vehicle: saline with Tween-80); 194 % of control under setting [1]; 218 % of control under setting [2].
Turning to `COc1c(Cl)c2c(c(OC)c1OC)-c1ccc(OC)c(=O)cc1C(NC(C)=O)CC2` (centres undefined), the T/C (dose: 0.38 mg/kg/injection, schedule: Q01DX009 (ip), vehicle: Klucel (hydroxypropylcellulose) (HPC)) was 118 % of control; the T/C (dose: 0.75 mg/kg/injection, schedule: Q01DX009 (ip), vehicle: Klucel (hydroxypropylcellulose) (HPC)) was 123 % of control; the T/C (dose: 3.0 mg/kg/injection, schedule: Q01DX009 (ip), vehicle: Klucel (hydroxypropylcellulose) (HPC)) is 109 % of control.
As for `CCc1cc2c(cc1C(=O)CBr)C(C)(C)CCC2(C)C`, the T/C (dose: 3.13 mg/kg/injection, schedule: Q01DX009 (ip), vehicle: saline with Tween-80) is 100 % of control; the T/C under setting [15] is 94 % of control; the T/C under setting [14] is 92 % of control and 99 % of control; the T/C under setting [1] is 94 % of control.
Consider `N=C(N)CCNC(=O)C1CCC(N)=N1` (centres undefined), for which the T/C is 96 % of control (dose: 0.75 mg/kg/injection, schedule: Q01DX009 (ip), vehicle: saline); 88 % of control (dose: 1.5 mg/kg/injection, schedule: Q01DX009 (ip), vehicle: saline); 93 % of control (dose: 3.0 mg/kg/injection, schedule: Q01DX009 (ip), vehicle: saline); 99 % of control (dose: 6.0 mg/kg/injection, schedule: Q01DX009 (ip), vehicle: saline).
As to `CC(=O)CC(C)=O.CC(=O)CC(C)=O.[Co]`, the T/C by setting is: under setting [15], 97 % of control; under setting [14], 102 % of control; under setting [1], 91 % of control.
Take `CCOC(C[Se][Se]CC(OCC)OCC)OCC`: the T/C was 99 % of control (dose: 1.56 mg/kg/injection, schedule: Q01DX009 (ip), vehicle: saline); 104 % of control (dose: 3.13 mg/kg/injection, schedule: Q01DX009 (ip), vehicle: saline); 95 % of control (dose: 6.25 mg/kg/injection, schedule: Q01DX009 (ip), vehicle: saline).
Regarding `CCCCCC#CC(=O)OC`, the T/C is 102 % of control under setting [14], 86 % of control under setting [1] and 86 % of control under setting [2].
With `CCCCCC(=O)c1ccc(O)cc1O`, the T/C (dose: 12.5 mg/kg/injection, schedule: Q01DX009 (ip), vehicle: gum acacia) is 102 % of control and the T/C (dose: 25.0 mg/kg/injection, schedule: Q01DX009 (ip), vehicle: gum acacia) is 89 % of control.
With `N#CC1C(=O)c2ccccc2C1=O`, the T/C reads like this: under setting [1], 114 % of control; under setting [2], 106 % of control.
Regarding `N#CC(CC(=O)c1ccc2c(c1)OCO2)c1ccc2c(c1)OCO2` (centres undefined), the T/C runs as follows: under setting [3], 105 % of control; under setting [4], 101 % of control; under setting [5], 94 % of control.
On to `COc1cc([C@@H]2c3cc4c(cc3[C@H](O)[C@H]3COC(=O)[C@H]23)OCO4)cc(OC)c1OC`, for which the T/C is, setting by setting: (dose: 2.0 mg/kg/injection, schedule: Q01DX009 (ip), vehicle: saline) 102 % of control; (dose: 4.0 mg/kg/injection, schedule: Q01DX009 (ip), vehicle: saline) 109 % of control; (dose: 8.0 mg/kg/injection, schedule: Q01DX009 (ip), vehicle: saline) 104 % of control.
In the case of `Cc1ccc(NC(=O)c2ccc(Cl)cc2)c(C)c1`, the T/C (dose: 75.0 mg/kg/injection, schedule: Q01DX009 (ip), vehicle: Klucel (hydroxypropylcellulose) (HPC)) was 93 % of control; the T/C (dose: 150.0 mg/kg/injection, schedule: Q01DX009 (ip), vehicle: Klucel (hydroxypropylcellulose) (HPC)) is 91 % of control; the T/C (dose: 300.0 mg/kg/injection, schedule: Q01DX009 (ip), vehicle: Klucel (hydroxypropylcellulose) (HPC)) is 88 % of control.
